# Laboratory results as given in patent publication US7476650B2, “Enzyme inhibition” (Yale University, priority 1999, dated 2009).
# Where a SMILES comes first, the peptide text is derived from it. The star is where a group is joined. Cbz = O=C(OCc1ccccc1)*
# Tested on: ubiquitinated proteins in Hela cells
# Test: α-ubiquitin immunoblot of treated Hela cells
# Format: cell-based
# Details: epoxomicin 10 μM, 2 hours
# Procedure: The control experiment (Crtl) was carried out with vehicle only.
compound,measurement,value
CC(C)C[C@@H](C=O)NC(=O)[C@H](CC(C)C)NC(=O)[C@H](CC(C)C)NC(=O)OCc1ccccc1 [Z-LLL-H] (Cbz-Leu-Leu-Leu-aldehyde),accumulation of ubiquitinated proteins (anti-ubiquitin antibody),upper molecular weight bands were also observed
